Source: PubChem BioAssay (NCI)
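Results reflect a 48-hour exposure of cells in 96-well plates to compound at five concentrations. The concentration for 50% growth inhibition is given as GI50. TGI marks complete inhibition of growth.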

Tests used:
Test in all cases: NCI anticancer screen, dose series, 48 h
IGROV1 ovarian = system: IGROV1 ovarian
LOX IMVI melanoma = system: LOX IMVI melanoma
NCI-H226 lung = system: NCI-H226 lung
NCI-H460 lung = system: NCI-H460 lung
NCI/ADR-RES ovarian = system: NCI/ADR-RES ovarian
OVCAR-5 ovarian = system: OVCAR-5 ovarian
SK-OV-3 ovarian = system: SK-OV-3 ovarian
T-47D breast = system: T-47D breast
UACC-257 melanoma = system: UACC-257 melanoma
MOLT-4 leukemia = system: MOLT-4 leukemia

Compound	GI50 (IGROV1 ovarian) [µM]	TGI (IGROV1 ovarian) [µM]	GI50 (LOX IMVI melanoma) [µM]	TGI (LOX IMVI melanoma) [µM]	GI50 (NCI-H226 lung) [µM]	TGI (NCI-H226 lung) [µM]	GI50 (NCI-H460 lung) [µM]	TGI (NCI-H460 lung) [µM]	GI50 (NCI/ADR-RES ovarian) [µM]	TGI (NCI/ADR-RES ovarian) [µM]	GI50 (OVCAR-5 ovarian) [µM]	TGI (OVCAR-5 ovarian) [µM]	GI50 (SK-OV-3 ovarian) [µM]	TGI (SK-OV-3 ovarian) [µM]	GI50 (T-47D breast) [µM]	TGI (T-47D breast) [µM]	GI50 (UACC-257 melanoma) [µM]	TGI (UACC-257 melanoma) [µM]	GI50 (MOLT-4 leukemia) [µM]	TGI (MOLT-4 leukemia) [µM]
C=C(C)[C@@H]1CC[C@]2(C(=O)n3ccnc3)CC[C@]3(C)[C@H](CC[C@@H]4[C@@]5(C)CCCNC(C)(C)[C@@H]5CC[C@]43C)[C@@H]12	1.58	3.27	1.62	3.05	2.23	4.8	1.76	3.4	1.7	3.66	2.25	6.4	3.72	16.2	1.53	3.54	2.02	4.09	–	–
Cc1ccc(-c2nc(C(Cl)Cl)nc3cc(C)nn23)cc1	–	–	4.01	> 100	> 100	> 100	0.515	3.01	1.18	5.73	2.22	6.72	2.28	8.62	2.86	> 100	3.26	> 100	1.82	> 100
CC1(C)CC(O)CC(C)(C)N1.CC1(C)CC(O)CC(C)(C)N1.CC1(C)CC(O)CC(C)(C)N1.CC1(C)CC(O)CC(C)(C)N1.Cl.[Ti]	> 100	> 100	> 100	> 100	> 100	> 100	> 100	> 100	–	–	> 100	> 100	> 100	> 100	–	–	> 100	> 100	> 100	> 100
O=C(Nc1cccc(-n2cc(-c3ccncc3)c(-c3ccc(O)c(Cl)c3)n2)c1)Nc1ccc(Cl)c(Cl)c1	2.35	6.78	1.38	5.06	3.01	9.53	2.22	12.4	–	–	3.26	55.9	3.43	> 100	1.84	6.41	2.02	5.13	1.43	4.52
Nc1ncnc2sc(Nc3ccccc3)nc12	–	> 100	–	> 100	–	> 100	–	> 100	–	–	–	> 100	–	> 100	–	–	–	> 100	–	> 100
CCOc1ccc(/C=C2/C(=O)N=C(N)N=C2N)cc1OCC	–	> 100	–	> 100	–	> 100	–	> 100	–	–	–	> 100	–	> 100	–	–	–	> 100	–	> 100
O=C1c2ccccc2-c2c1c1ccc([N+](=O)[O-])cc1c(=O)n2CCCCl	> 100	> 100	3.24	> 100	–	–	2.61	67.5	24.1	> 100	> 100	> 100	63.4	> 100	–	–	> 100	> 100	2.1	> 100
O=c1[nH]c(=O)n(C2CC(O)C(O)C(CO)O2)cc1F (stereo not given)	–	> 100	–	> 100	–	> 100	–	> 100	–	–	–	> 100	–	> 100	–	–	–	> 100	–	> 100
